For this series, the system named is GENE-TOX genotoxicity assays, various organisms and cells. Description: GENE-TOX mutagenicity studies. Conditions: for call: Assay Type: In vivo carcinogenicity studies.
Where [1] appears, read: Species/Cell Type: Vicia faba, Assay Type: Chromosome aberrations, Assay Code: VIC+, Evaluation Type: Evaluation A (Pre-1980).
The mark [2] stands for this setting: Species/Cell Type: Mouse, Sex: Male, Assay Type: Sperm morphology, Assay Code: SPI-, Evaluation Type: Evaluation A (Pre-1980).
Setting [3] is: Species/Cell Type: Salmonella typhimurium (one or more of the five standard strains: TA98, TA100, TA1535, TA1537, and TA1538), Assay Type: Histidine reverse gene mutation, Ames assay, Assay Code: SAL+*, Activation: With metabolic activation, Evaluation Type: Evaluation A (Pre-1980).
The mark [4] stands for this setting: Species/Cell Type: Nonhuman, Assay Code: CCGT, Evaluation Type: Evaluation A (Pre-1980).
Where [5] appears, read: Species/Cell Type: Drosophila melanogaster, Assay Type: Sex-linked recessive lethal gene mutation, Assay Code: SRL+, Evaluation Type: Evaluation A (Pre-1980).
The mark [6] stands for this setting: Species/Cell Type: Chinese hamster ovary (CHO) cells, Assay Type: Forward gene mutation at the HPRT locus, Assay Code: CHO+, Evaluation Type: Evaluation B (Post-1980).
The mark [7] stands for this setting: Species/Cell Type: Fischer rat embryo (RLV/1706) cells, Assay Type: Cell transformation, viral enhanced, Assay Code: CTR-, Evaluation Type: Evaluation A (Pre-1980).
Setting [8] is: Species/Cell Type: Salmonella typhimurium (one or more of the five standard strains: TA98, TA100, TA1535, TA1537, and TA1538), Assay Type: Histidine reverse gene mutation, Ames assay, Assay Code: SAL-, Evaluation Type: Evaluation A (Pre-1980).

The source made the active and inactive calls. The rule behind the calls is not given here.

As to `CS(=O)(=O)OC[C@H](O)[C@@H](O)COS(C)(=O)=O`, the mutagenic call (Species/Cell Type: Allium cepa, Assay Type: Chromosome aberrations, Assay Code: ALC+D, Dose Response: With dose response, Evaluation Type: Evaluation A (Pre-1980)) is “active; positive”; the mutagenic call (Species/Cell Type: Arabidopsis species, Assay Type: Gene mutation, Assay Code: ARM+, Evaluation Type: Evaluation A (Pre-1980)) is “active; positive”; the mutagenic call (Species/Cell Type: Hordeum vulgare (barley), Assay Type: Chromosome aberrations, Assay Code: HOC+D, Dose Response: With dose response, Evaluation Type: Evaluation A (Pre-1980)) is “active; positive”; the mutagenic call under setting [1] is “active; positive”.
In the case of `C[C@]12CCC[C@H](O1)c1c(cc3c(c1O)C(=O)c1c(O)cc(O)cc1C3=O)O2`, under “Species/Cell Type: Salmonella typhimurium (one or more of the five standard strains: TA98, TA100, TA1535, TA1537, and TA1538), Assay Type: Histidine reverse gene mutation, Ames assay, Assay Code: SALT, Evaluation Type: Evaluation A (Pre-1980)”, the mutagenic call is on record as “no conclusion”.
Turning to `Nc1ccc(Cl)cc1Cl`, the mutagenic call under setting [2] is “inactive; negative”.
`Cc1cc(N=Nc2ccc(S(=O)(=O)O)cc2)c(N)cc1N`: under setting [3], the mutagenic call was “active; positive”.
As to `[Pb]`, the mutagenic call reads like this: (Species/Cell Type: Human lymphocytes or leukocytes, Assay Type: Chromosome aberrations in vitro, Assay Code: CY7-, Evaluation Type: Evaluation A (Pre-1980)) “inactive; negative”; (Species/Cell Type: Human lymphocytes or leukocytes, Assay Type: Chromosome aberrations in vivo, Assay Code: CY8T, Evaluation Type: Evaluation A (Pre-1980)) “no conclusion”; (Species/Cell Type: Human, Sex: Male, Assay Type: Sperm morphology, Assay Code: SPH+, Evaluation Type: Evaluation A (Pre-1980)) “active; positive”; (Species/Cell Type: Nonhuman bone marrow, Assay Type: Chromosome aberrations, in vivo, Assay Code: CY#-, Evaluation Type: Evaluation A (Pre-1980)) “inactive; negative”. The call under setting [4] is “no conclusion”.
As for `CC(=O)N1CC1`, the mutagenic call under setting [1] was “active; positive”.
Consider `CS(=O)(=O)OCCCCO`, for which, under setting [5], the mutagenic call was “active; positive”.
On to `CC(Cl)(Cl)Cl`, for which the mutagenic call (Species/Cell Type: Fischer rat embryo (RLV/1706) cells, Assay Type: Cell transformation, viral enhanced, Assay Code: CTR+, Evaluation Type: Evaluation A (Pre-1980)) was “active; positive”; the mutagenic call (Species/Cell Type: Mammalian polychromatic erythrocytes, Assay Type: Micronucleus test, chromosome aberrations, Assay Code: MNTT, Evaluation Type: Evaluation A (Pre-1980)) is reported as “no conclusion”; the mutagenic call under setting [2] was “inactive; negative”; the mutagenic call (Species/Cell Type: Nonhuman, Assay Type: Sister-chromatid exchange (SCE) in vitro, Assay Code: SC2+, Evaluation Type: Evaluation B (Post-1980)) was “active; positive”. The call under setting [4] is “no conclusion”.
For `O=[N+]([O-])c1ccc(-c2csc(Cl)n2)o1`, the mutagenic call was “active; positive” (Species/Cell Type: Escherichia coli WP2, Assay Type: Tryptophan reverse gene mutation, Assay Code: WP2+, Evaluation Type: Evaluation A (Pre-1980)) and “active; positive” (Species/Cell Type: Escherichia coli WP2 UVRA, Assay Type: Tryptophan reverse gene mutation, Assay Code: WPU+, Evaluation Type: Evaluation A (Pre-1980)).
For `OCn1cnc2ccccc21`, for the setting “Species/Cell Type: Arabidopsis species, Assay Type: Gene mutation, Assay Code: ARM-, Evaluation Type: Evaluation A (Pre-1980)”, the mutagenic call was “inactive; negative”.
With `CC(=O)c1c(=O)cc(C)oc1=O`, the mutagenic call (Species/Cell Type: Nonhuman, Assay Type: Sister-chromatid exchange (SCE) in vitro, Assay Code: SC2-, Evaluation Type: Evaluation A (Pre-1980)) was “inactive; negative” and the mutagenic call (Species/Cell Type: Nonhuman, Assay Type: Sister-chromatid exchange (SCE) in vitro, Assay Code: SC2T, Evaluation Type: Evaluation B (Post-1980)) was “no conclusion”.
As to `COc1cc2c(c3oc(=O)c4c(c13)C(O)CC4O)[C@@H]1C=CO[C@@H]1O2` (some centres not stated), the mutagenic call under setting [3] is “active; positive”.
Turning to `CCOC(=O)COc1ccc(Cl)cc1CCl` (tested in a mixture with another compound), under “Species/Cell Type: Saccharomyces cerevisiae, Assay Type: Reverse gene mutation, Assay Code: YERT, Evaluation Type: Evaluation A (Pre-1980)”, the mutagenic call is listed as “no conclusion”.
As for `COc1ccc2[nH]c3c(C)c4ccncc4c(C)c3c2c1`, under setting [6], the mutagenic call is “active; positive”.
As for `CC1=CCc2c1cc(C)c1c2ccc2ccccc21`, under setting [3], the mutagenic call is “active; positive”.
Consider `COc1ccc(C(c2ccc(OC)cc2)C(Cl)(Cl)Cl)cc1`, for which the mutagenic call by setting is: (Species/Cell Type: Bacillus subtilis (H17 vs M45), Assay Type: Rec-assay, spot test, DNA effects (bacterial DNA repair), Assay Code: REWT, Evaluation Type: Evaluation A (Pre-1980)) “no conclusion”; (Species/Cell Type: Drosophila melanogaster, Assay Type: Sex-linked recessive lethal gene mutation, Assay Code: SRL-, Evaluation Type: Evaluation A (Pre-1980)) “inactive; negative”; (Species/Cell Type: Escherichia coli WP2 UVRA, Assay Type: Tryptophan reverse gene mutation, Assay Code: WPU-*, Activation: With metabolic activation, Evaluation Type: Evaluation A (Pre-1980)) “inactive; negative”; (Species/Cell Type: Escherichia coli polA (W3119 vs P3478), Assay Type: Rec-assay, DNA effects (bacterial DNA repair), Assay Code: RE1T, Evaluation Type: Evaluation A (Pre-1980)) “no conclusion”; under setting [7], “inactive; negative”; (Species/Cell Type: Human diploid fibroblasts, Assay Type: Unscheduled DNA synthesis (UDS) in vitro, DNA effects, Assay Code: UDH-, Evaluation Type: Evaluation A (Pre-1980)) “inactive; negative”. Moreover, the mutagenic call is, setting by setting: (Species/Cell Type: Mouse (BALB/c-3T3) cells, Assay Type: Cell transformation, Assay Code: CTB+D, Dose Response: With dose response, Evaluation Type: Evaluation A (Pre-1980)) “active; positive”; (Species/Cell Type: Saccharomyces cerevisiae, Assay Type: Mitotic recombination or gene conversion, Assay Code: YEH-, Evaluation Type: Evaluation A (Pre-1980)) “inactive; negative”; under setting [8], “inactive; negative”; (Species/Cell Type: Syrian hamster embryo (SHE) cells, Assay Type: Cell transformation, clonal assay, Assay Code: CTC-, Evaluation Type: Evaluation A (Pre-1980)) “inactive; negative”. Besides, for the setting “Species/Cell Type: Nonhuman, Assay Code: CCG-, Evaluation Type: Evaluation A (Pre-1980)”, the call is “inactive; negative”.
Take `Cc1c2ccncc2c(C)c2c1[nH]c1ccc(N)cc12`: under setting [6], the mutagenic call was “active; positive”.
Turning to `C=C1[C@@H](C)[C@H]2[C@H](Cc3ccccc3)NC(=O)[C@]23OC(=O)/C=C/[C@H](O)CCC[C@@H](C)C/C=C/[C@H]3[C@@H]1O`, under “Species/Cell Type: Bacillus subtilis (H17 vs M45), Assay Type: Rec-assay, spot test, DNA effects (bacterial DNA repair), Assay Code: REW-, Evaluation Type: Evaluation A (Pre-1980)”, the mutagenic call is “inactive; negative”.
Consider `O=S1(=O)CCCCO1`, for which the mutagenic call was “active; positive” (Species/Cell Type: Escherichia coli polA (W3119 vs P3478), Assay Type: Rec-assay, DNA effects (bacterial DNA repair), Assay Code: RE1+, Evaluation Type: Evaluation A (Pre-1980)); “active; positive” (Species/Cell Type: Saccharomyces cerevisiae, Assay Type: Mitotic recombination or gene conversion, Assay Code: YEH+, Evaluation Type: Evaluation A (Pre-1980)); “active; positive” (Species/Cell Type: Salmonella typhimurium (one or more of the five standard strains: TA98, TA100, TA1535, TA1537, and TA1538), Assay Type: Histidine reverse gene mutation, Ames assay, Assay Code: SAL+, Evaluation Type: Evaluation A (Pre-1980)); “active; positive” (Species/Cell Type: Salmonella typhimurium, Assay Type: Forward and reverse gene mutation, host-mediated assay, Assay Code: HMA+, Evaluation Type: Evaluation A (Pre-1980)); “active; positive” (Species/Cell Type: Schizosaccharomyces pombe, Assay Type: Reverse gene mutation, Assay Code: YEZ+, Evaluation Type: Evaluation A (Pre-1980)); “active; positive” (Species/Cell Type: Syrian hamster embryo (SHE) cells, Assay Type: Cell transformation, clonal assay, Assay Code: CTC+, Evaluation Type: Evaluation A (Pre-1980)). For the same compound, the call under setting [4] is “no conclusion”.
Turning to `[Cl-].[Cl-].[Cl-].[Cl-].[Cl-].[Cl-].[Mo]`, the mutagenic call (Species/Cell Type: Syrian hamster embryo (SA7/SHE) cells, Assay Type: Cell transformation, viral enhanced, Assay Code: CT7+, Evaluation Type: Evaluation A (Pre-1980)) is “active; positive”.
In the case of `CNP(=O)(N1CC1)N1CC1`, the mutagenic call under setting [5] was “active; positive”.
Regarding `Oc1ccc(O)c(O)c1`, the mutagenic call (Species/Cell Type: Allium cepa, Assay Type: Chromosome aberrations, Assay Code: ALC+, Evaluation Type: Evaluation A (Pre-1980)) is “active; positive”.
As to `CO[C@@]12[C@H](CO)C3=C(C(=O)C(C)=C(N)C3=O)N1C[C@@H]1N[C@@H]12`, the mutagenic call was “active; positive” (Species/Cell Type: Human lymphocytes, Assay Type: Sister-chromatid exchange (SCE) in vitro, Assay Code: SCL+D, Dose Response: With dose response, Evaluation Type: Evaluation B (Post-1980)); “active; positive” (Species/Cell Type: Human, Assay Type: Sister-chromatid exchange (SCE) in vitro, Assay Code: SC1+D, Dose Response: With dose response, Evaluation Type: Evaluation B (Post-1980)); “active; positive” (Species/Cell Type: Nonhuman, Assay Type: Sister-chromatid exchange (SCE) in vitro, Assay Code: SC2+D, Dose Response: With dose response, Evaluation Type: Evaluation B (Post-1980)).
On to `CN(C)C(c1ccccc1)(c1ccccc1)N(C)C`, for which the mutagenic call under setting [8] is “inactive; negative”.
Same read-out and setting: under `O=c1cc[nH]c2ccccc12` stands “inactive; negative”.
With `Nc1ccc2c(c1)-c1ccccc1C2`, the mutagenic call under setting [7] is “inactive; negative”.

Source of the values: PubChem BioAssay AID1259408 (Genetic Toxicology Data Bank (GENE-TOX), 2018).
